EC50, activation and inhibition data for 15 compounds are collected here from US10793557B2, “Sting agonist compounds” (Merck Sharp & Dohme Corp., priority 2018, dated 2020).

SMILES strings stand for the structures.

By EC50 is commonly meant the midpoint of the concentration-response curve. One may read the inhibition as the percentage by which the read-out fell short of the control. A lower inhibition goes with a weak effect.

The target of one assay is T1, full-length HAQ STING (Homo sapiens, UniProt Q86WV6, G230A/H232R/R293Q/R71H).
T1 construct: AviTag (after GG linker) (C); HRV3C cleavage site (after GS linker) (C); HIS8 (C); made in house; host or cells: Trichoplusia ni (Hi-Five) insect cells infected with baculovirus (virus generated and amplified in Sf21 cells); used as a washed membrane preparation
The assay can be described thus: 3H-cGAMP filtration binding assay (HAQ STING). Conditions: competition with tritiated cGAMP, HAQ STING membrane. The procedure, abridged: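 Hi-Five (T. ni) membranes overexpressing the STING variant (2.2 ug/ml working) preincubated with compound 60 min at RT in PBS, then [3H]cGAMP (8 nM working stock) added for 60 min at RT. Bound radioactivity captured on GF/B filters and counted by scintillation; EC50 from 4-parameter fit of control-normalized activity.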

The target of the next assay is T2, full-length WT STING (Homo sapiens, UniProt Q86WV6, H232R).
T2 construct: AviTag (after gg linker) (C); HRV3C cleavage site (after gs linker) (C); HIS8 (C); made in house; host or cells: Trichoplusia ni (Hi-Five) insect cells infected with baculovirus (virus generated and amplified in Sf21 cells); used as a washed membrane preparation
In words: 3H-cGAMP filtration binding assay (WT STING). The settings on record: for EC50: competition with tritiated cGAMP, WT STING membrane. The procedure, abridged:
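EC50 values come from 4-parameter fits of remaining filter-bound tritium versus log concentration (10-point, 1:3 dilution). Insect-cell membranes carrying full-length WT STING were incubated 60 min at RT with compound and tritiated cGAMP (16 nM working stock) before filtration.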

For assay [1], the system named is secretion of interferon-beta from THP1 cells. In words: IFN-β secretion in THP1 cell culture (5 h). It is filed as cell-based. Conditions: Homo sapiens, THP-1, 5 h, 30 uM cGAMP = 100%; for activation at 30 µM: compound at 30 μM, read-out: % Effect at 30 μM relative to 2′3′-cGAMP; for activation at 3 µM: compound at 3 uM, read-out: % Effect relative to 2′3′-cGAMP (@ 3 uM). Put shortly:
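IFN-β in supernatant measured by AlphaLISA after a 5 h, 37 °C incubation of THP1 cells with compound (10 concentrations, 30000 down to 1.5 nM, 0.3% DMSO) in low-serum RPMI. Values scaled between DMSO and 30 uM cGAMP controls; 4-parameter curve fit yields EC50.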

T1 sequence (Q86WV6 with tags, fused parts or gaps R71H/G230A/H232R/R293Q): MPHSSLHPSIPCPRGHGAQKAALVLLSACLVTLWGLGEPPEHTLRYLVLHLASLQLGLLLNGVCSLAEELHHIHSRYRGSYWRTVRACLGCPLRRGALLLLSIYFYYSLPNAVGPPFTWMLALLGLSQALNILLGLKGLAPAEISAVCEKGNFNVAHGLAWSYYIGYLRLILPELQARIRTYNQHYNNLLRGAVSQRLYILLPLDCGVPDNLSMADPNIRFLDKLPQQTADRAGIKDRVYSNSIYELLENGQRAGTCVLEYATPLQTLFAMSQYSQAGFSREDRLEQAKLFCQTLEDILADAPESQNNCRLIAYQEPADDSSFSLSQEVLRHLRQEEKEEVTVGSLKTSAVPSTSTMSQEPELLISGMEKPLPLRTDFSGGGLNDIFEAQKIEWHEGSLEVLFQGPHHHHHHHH
T2 sequence (Q86WV6 with tags, fused parts or gaps H232R): as the sequence (Q86WV6 with tags, fused parts or gaps R71H/G230A/H232R/R293Q) above, with H71R, A230G, Q293R counted along it

As for `COc1cc2cc(C(=O)C[C@H](C)C(=O)O)sc2cc1OCCCOc1c(OC)cc2sc(C(=O)[C@@H]3CC[C@H]3C(=O)O)cc2c1F` [Example 171, trans-2-(5-(3-((2-((S)-3-carboxybutanoyl)-5-methoxybenzo[b]thiophen-6-yl)oxy)propoxy)-4-fluoro-6-methoxybenzo[b]thiophene-2-carbonyl)cyclobutanecarboxylic acid], the half-maximal effective concentration (EC50) at full-length HAQ STING came to 9 nM; at full-length WT STING, 59 nM. Moreover, in assay [1], the activation at 30 µM came to 97%.
As for `COc1cc2sc(C(=O)C[C@H](C)C(=O)O)cc2c(Cl)c1OCCCCOc1c(OC)cc2sc(C(=O)C[C@H](C)C(=O)O)cc2c1Cl` [Example 172, (2S,2′S)-4,4′-(5,5′-(butane-1,4-diylbis(oxy))bis(4-chloro-6-methoxybenzo[b]thiophene-5,2-diyl))bis(2-methyl-4-oxobutanoic acid)], the EC50 came out at 454 nM on full-length HAQ STING and 15100 nM at full-length WT STING. Also, the activation at 3 µM in assay [1] was 16%.
As to `COc1cc2sc(C(=O)CCC(=O)O)cc2nc1CCCOc1c(OC)cc2sc(C(=O)CCC(=O)O)cc2c1F` [Example 173], the EC50 at full-length HAQ STING amounted to 1 nM; at full-length WT STING, 3 nM. Also, the activation at 30 µM in assay [1] is 127%.
`COc1cc2sc(C(=O)CCC(=O)O)cc2nc1CCCOc1c(OC)cc2sc(C(=O)C[C@H](C)C(=O)O)cc2c1F` [Example 174, (S)-4-(5-(3-(2-(3-carboxypropanoyl)-6-methoxythieno[3,2-b]pyridin-5-yl)propoxy)-4-fluoro-6-methoxybenzo[b]thiophen-2-yl)-2-methyl-4-oxobutanoic acid]: the EC50 at full-length HAQ STING and on full-length WT STING was 1 nM in each case. Further, in assay [1], the activation at 30 µM turned out to be 88%.
Turning to `COc1cc2sc(C(=O)CCC#N)cc2cc1CCCc1cc2cc(C(=O)CCC#N)sc2cc1OC` [Example 175, 4,4′-(Propane-1,3-diylbis(6-methoxybenzo[b]thiophene-5,2-diyl))bis(4-oxobutanenitrile)], the EC50 on full-length HAQ STING worked out at 4020 nM. In addition, the inhibition at 20 µM at full-length WT STING (at 20,000 nM compound) was determined as 46%. Also, the activation at 30 µM in assay [1] was 13%.
As for `COc1cc2sc(C(=O)C[C@H](C)C(=O)O)cc2cc1NCCCOc1c(OC)cc2sc(C(=O)C[C@H](C)C(=O)O)cc2c1F` [Example 176, (S)-4-(5-((3-((2-((S)-3-Carboxybutanoyl)-4-fluoro-6-methoxybenzo [b]thiophen-5-yl)oxy)propyl)amino)-6-methoxybenzo[b]thiophen-2-yl)-2-methyl-4-oxobutanoic acid], the EC50 on full-length HAQ STING stood at 1 nM; on full-length WT STING, 2 nM. In assay [1], the activation at 30 µM was determined as 44%.
For `COc1cc2sc(C(=O)CCC(=O)O)cc2cc1CCCNc1cc2cc(C(=O)C[C@H](C)C(=O)O)sc2cc1OC` [Example 177, (S)-4-(5-((3-(2-(3-carboxypropanoyl)-6-methoxybenzo[b]thiophen-5-yl)propyl)amino)-6-methoxybenzo[b]thiophen-2-yl)-2-methyl-4-oxobutanoic acid], in that order: 68 nM, 720 nM and 80%.
For `COc1cc2sc(C(=O)C[C@H](C)C(=O)O)cc2cc1OCCCOc1c(OC)cc2sc(C(=O)C[C@H](C)C(=O)NS(=O)(=O)N(C)C)cc2c1F` [Example 178, (S)-4-(5-(3-((2-((S)-4-((N,N-Dimethylsulfamoyl)amino)-3-methyl-4-oxobutanoyl)-4-fluoro-6-methoxybenzo[b]thiophen-5-yl)oxy)propoxy)-6-methoxybenzo[b]thiophen-2-yl)-2-methyl-4-oxobutanoic acid] the same measures were 4 nM, 31 nM and 107%.
Consider `COc1cc2sc(C(=O)C[C@H](C)C(=O)O)cc2cc1OCCCOc1c(OC)cc2sc(C(=O)C[C@H](C)C(=O)NS(C)(=O)=O)cc2c1F` [Example 179, (S)-4-(5-(3-((4-fluoro-6-methoxy-2-((S)-3-methyl-4-(methylsulfonamido)-4-oxobutanoyl)-benzo[b]thiophen-5-yl)oxy)propoxy)-6-methoxybenzo[b]thiophen-2-yl)-2-methyl-4-oxobutanoic acid], for which the EC50 on full-length HAQ STING and at full-length WT STING was 1 nM in each case. For the same compound, the activation at 30 µM in assay [1] worked out at 79%.
In the case of `COc1cc2sc(C(=O)C[C@H](C)C(=O)O)cc2c(F)c1OCCCOc1cc2cc(C(=O)C[C@H](C)C(=O)O)sc2cc1O` [Example 180, (S)-4-(5-(3-((2-((S)-3-Carboxybutanoyl)-4-fluoro-6-methoxybenzo[b]thiophen-5-yl)oxy)propoxy)-6-hydroxybenzo [b]thiophen-2-yl)-2-methyl-4-oxobutanoic acid], the EC50 at full-length HAQ STING and on full-length WT STING was 1 nM in each case. The activation at 3 µM in assay [1] amounted to 121%.
Consider `COc1cc2sc(CC[C@H](C)C(=O)O)cc2c(F)c1OCCCOc1cc2cc(C(=O)C[C@H](C)C(=O)O)sc2cc1O` [Example 181, (S)-4-(5-(3-((2-((S)-3-carboxybutyl)-4-fluoro-6-methoxybenzo[b]thiophen-5-yl)oxy)propoxy)-6-hydroxybenzo[b]thiophen-2-yl)-2-methyl-4-oxobutanoic acid], for which the half-maximal effective concentration (EC50) amounted to 5 nM on full-length HAQ STING and 177 nM at full-length WT STING. For the same compound, the activation at 3 µM in assay [1] came out at 104%.
For `COc1cc2sc(C(=O)C[C@H](C)C(=O)O)cc2c(Cl)c1OCCCOc1cc2cc(C(=O)C[C@H](C)C(=O)O)sc2cc1O` [Example 182, (S)-4-(5-(3-((2-((S)-3-carboxybutanoyl)-4-chloro-6-methoxybenzo[b]thiophen-5-yl)oxy)propoxy)-6-hydroxybenzo[b]thiophen-2-yl)-2-methyl-4-oxobutanoic acid] the same measures were 1 nM, 2 nM and 147%.
On to `COc1cc2sc(C(=O)C[C@H](C)C(=O)O)cc2cc1OCCCOc1c(O)cc2sc(C(=O)C[C@H](C)C(=O)O)cc2c1Cl` [Example 183, (S)-4-(5-(3-((2-((S)-3-carboxybutanoyl)-4-chloro-6-hydroxybenzo[b]thiophen-5-yl)oxy)propoxy)-6-methoxybenzo[b]thiophen-2-yl)-2-methyl-4-oxobutanoic acid], for which the EC50 at full-length HAQ STING amounted to 1 nM; on full-length WT STING, 3 nM. The activation at 3 µM in assay [1] stood at 127%.
The compound `COc1cc2sc(CC[C@H](C)C(=O)O)cc2cc1OCCCOc1c(O)cc2sc(C(=O)C[C@H](C)C(=O)O)cc2c1Cl` [Example 184, (S)-4-(5-(3-((2-((S)-3-carboxybutyl)-6-methoxybenzo[b]thiophen-5-yl)oxy)propoxy)-4-chloro-6-hydroxybenzo[b]thiophen-2-yl)-2-methyl-4-oxobutanoic acid] yielded a concentration giving a half-maximal response (EC50) on full-length HAQ STING of 353 nM. In addition, at 2 µM the inhibition on full-length WT STING (at 2,000 nM compound) was 29%. In assay [1], the activation at 3 µM was determined as 10%.
In the case of `COc1cc2sc(C(=O)C[C@H](C)C(=O)O)cc2c(F)c1OCCCOc1c(O)cc2sc(C(=O)C[C@H](C)C(=O)O)cc2c1Cl` [Example 185, (S)-4-(5-(3-((2-((S)-3-carboxybutanoyl)-4-chloro-6-hydroxybenzo[b]thiophen-5-yl)oxy)propoxy)-4-fluoro-6-methoxybenzo[b]thiophen-2-yl)-2-methyl-4-oxobutanoic acid], the EC50 on full-length HAQ STING and at full-length WT STING was 1 nM in each case. For the same compound, the activation at 3 µM in assay [1] was 122%.
